{"source": "ChEMBL document CHEMBL4359833", "about": "“Philanthotoxin Analogues That Selectively Inhibit Ganglionic Nicotinic Acetylcholine Receptors with Exceptional Potency” (J Med Chem, 2019)", "type_in_all_cases": "cell-based", "key": {"Homo sapiens": {"organism": "Homo sapiens", "assay": "Selectivity ratio of IC50 for alpha4beta2 nAChR (unknown origin) expressed in Xenopus laevis oocytes to IC50 for alpha3beta4 nAChR (unknown origin) expressed in Xenopus laevis oocytes"}, "[1]": {"biological_target": "T1, Neuronal acetylcholine receptor; alpha4/beta2 (Homo sapiens, UniProt P17787+P43681)", "T1 sequence (P17787 whole entry)": "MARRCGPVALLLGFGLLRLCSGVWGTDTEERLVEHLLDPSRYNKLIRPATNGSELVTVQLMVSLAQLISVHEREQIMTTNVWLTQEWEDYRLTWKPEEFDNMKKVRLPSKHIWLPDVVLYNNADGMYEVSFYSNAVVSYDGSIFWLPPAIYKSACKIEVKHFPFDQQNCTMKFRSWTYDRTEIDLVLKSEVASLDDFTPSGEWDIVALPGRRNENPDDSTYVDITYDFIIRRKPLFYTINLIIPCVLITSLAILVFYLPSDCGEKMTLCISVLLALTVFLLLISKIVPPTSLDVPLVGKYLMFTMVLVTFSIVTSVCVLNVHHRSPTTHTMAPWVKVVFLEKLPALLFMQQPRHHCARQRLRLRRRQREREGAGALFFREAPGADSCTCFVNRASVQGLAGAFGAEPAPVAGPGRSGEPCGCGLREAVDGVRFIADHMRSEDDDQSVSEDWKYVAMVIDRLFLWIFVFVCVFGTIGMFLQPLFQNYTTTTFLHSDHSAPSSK", "T1 sequence (P43681 whole entry)": "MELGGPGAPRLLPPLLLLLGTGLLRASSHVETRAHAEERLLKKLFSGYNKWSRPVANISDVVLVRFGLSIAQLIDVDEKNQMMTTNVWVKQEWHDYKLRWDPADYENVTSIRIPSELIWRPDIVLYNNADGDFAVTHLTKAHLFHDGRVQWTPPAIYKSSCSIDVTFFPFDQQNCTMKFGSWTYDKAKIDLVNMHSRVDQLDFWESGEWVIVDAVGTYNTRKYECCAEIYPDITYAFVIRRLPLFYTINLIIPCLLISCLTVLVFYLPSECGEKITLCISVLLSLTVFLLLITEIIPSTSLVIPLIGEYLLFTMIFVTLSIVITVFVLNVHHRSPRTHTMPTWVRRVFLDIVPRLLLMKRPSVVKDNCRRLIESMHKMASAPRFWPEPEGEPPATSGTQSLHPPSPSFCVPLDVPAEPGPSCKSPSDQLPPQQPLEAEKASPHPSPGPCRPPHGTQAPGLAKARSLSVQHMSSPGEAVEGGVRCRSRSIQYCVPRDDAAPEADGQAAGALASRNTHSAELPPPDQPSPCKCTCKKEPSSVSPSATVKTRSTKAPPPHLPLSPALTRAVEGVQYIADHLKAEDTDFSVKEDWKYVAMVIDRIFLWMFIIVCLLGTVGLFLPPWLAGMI", "assay": "Antagonist activity at alpha4beta2 nAChR (unknown origin) expressed in Xenopus laevis oocytes assessed as inhibition of Ach-induced channel activation at -100 mV holding potential treated for 1 min by two electrode voltage-clamp assay"}, "[2]": {"biological_target": "T2, Neuronal acetylcholine receptor; alpha3/beta4 (Homo sapiens, UniProt P30926+P32297)", "T2 sequence (P30926 whole entry)": "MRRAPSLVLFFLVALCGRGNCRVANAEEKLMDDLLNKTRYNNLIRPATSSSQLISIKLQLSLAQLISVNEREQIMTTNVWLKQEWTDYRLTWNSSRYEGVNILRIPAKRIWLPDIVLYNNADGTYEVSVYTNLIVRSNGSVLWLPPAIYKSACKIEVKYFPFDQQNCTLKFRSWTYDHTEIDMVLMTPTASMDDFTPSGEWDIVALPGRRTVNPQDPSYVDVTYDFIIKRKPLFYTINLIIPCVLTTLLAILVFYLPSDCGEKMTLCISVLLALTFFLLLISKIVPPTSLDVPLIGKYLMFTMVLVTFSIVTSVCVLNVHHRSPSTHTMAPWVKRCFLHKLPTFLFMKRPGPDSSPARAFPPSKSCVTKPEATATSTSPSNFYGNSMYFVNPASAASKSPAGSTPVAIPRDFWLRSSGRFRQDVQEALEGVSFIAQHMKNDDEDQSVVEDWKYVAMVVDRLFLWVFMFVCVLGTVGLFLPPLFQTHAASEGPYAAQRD", "T2 sequence (P32297 whole entry)": "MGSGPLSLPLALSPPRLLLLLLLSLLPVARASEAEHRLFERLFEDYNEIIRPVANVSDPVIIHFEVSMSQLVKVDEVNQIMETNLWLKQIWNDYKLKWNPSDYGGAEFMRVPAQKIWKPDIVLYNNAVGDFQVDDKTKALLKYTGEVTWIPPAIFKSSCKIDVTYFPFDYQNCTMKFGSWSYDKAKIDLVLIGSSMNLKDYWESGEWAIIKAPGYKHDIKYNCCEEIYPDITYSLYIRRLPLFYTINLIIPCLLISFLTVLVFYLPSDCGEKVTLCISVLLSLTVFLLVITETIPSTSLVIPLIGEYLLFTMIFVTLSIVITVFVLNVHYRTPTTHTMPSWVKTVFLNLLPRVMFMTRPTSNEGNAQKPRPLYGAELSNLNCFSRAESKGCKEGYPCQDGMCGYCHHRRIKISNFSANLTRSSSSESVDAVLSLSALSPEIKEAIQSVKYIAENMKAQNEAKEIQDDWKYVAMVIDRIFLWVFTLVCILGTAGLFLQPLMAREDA", "assay": "Antagonist activity at alpha3beta4 nAChR (unknown origin) expressed in Xenopus laevis oocytes assessed as inhibition of Ach-induced channel activation at -100 mV holding potential treated for 1 min by two electrode voltage-clamp assay"}, "[3]": {"biological_target": "T2, Neuronal acetylcholine receptor; alpha3/beta4", "assay": "Antagonist activity at alpha3beta4 nAChR (unknown origin) expressed in Xenopus laevis oocytes assessed as inhibition of Ach-induced channel activation at -100 mV holding potential treated for 1 min by two electrode voltage-clamp assay relative to PhTX-343 IC50"}, "[4]": {"biological_target": "T1, Neuronal acetylcholine receptor; alpha4/beta2", "assay": "Antagonist activity at alpha4beta2 nAChR (unknown origin) expressed in Xenopus laevis oocytes assessed as inhibition of Ach-induced channel activation at -100 mV holding potential treated for 1 min by two electrode voltage-clamp assay relative to PhTX-343 IC50"}}, "data": [{"smiles": "CCCC(=O)N[C@@H](CC1CCCCC1)C(=O)NCCCNCCCCNCCCN", "values": [{"measurement": "Ratio IC50", "setting": "Homo sapiens", "value": 1}, {"measurement": "IC50", "setting": "[1]", "value": 2.58, "unit": "nM"}, {"measurement": "IC50", "setting": "[2]", "value": 2.62, "unit": "nM"}, {"measurement": "Ratio IC50", "setting": "[3]", "value": 2.9}, {"measurement": "Ratio IC50", "setting": "[4]", "value": 31.1}]}, {"smiles": "NCCCNCCCCNCCCNC(=O)[C@H](CC1CCCCC1)NC(=O)c1ccc(-c2ccccc2)cc1", "values": [{"measurement": "Ratio IC50", "setting": "Homo sapiens", "value": 9.1}, {"measurement": "IC50", "setting": "[1]", "value": 25.8, "unit": "nM"}, {"measurement": "IC50", "setting": "[2]", "value": 2.83, "unit": "nM"}, {"measurement": "Ratio IC50", "setting": "[3]", "value": 2.7}, {"measurement": "Ratio IC50", "setting": "[4]", "value": 3.1}]}, {"smiles": "NCCCNCCCCNCCCNC(=O)[C@H](Cc1ccc(O)cc1)NC(=O)C1CCCCC1", "values": [{"measurement": "Ratio IC50", "setting": "Homo sapiens", "value": 79.6}, {"measurement": "IC50", "setting": "[1]", "value": 36.6, "unit": "nM"}, {"measurement": "IC50", "setting": "[2]", "value": 0.46, "unit": "nM"}, {"measurement": "Ratio IC50", "setting": "[3]", "value": 16.6}, {"measurement": "Ratio IC50", "setting": "[4]", "value": 2.2}]}, {"smiles": "CCCC(=O)N[C@@H](Cc1ccccc1)C(=O)NCCCNCCCCNCCCN", "values": [{"measurement": "Ratio IC50", "setting": "Homo sapiens", "value": 29.9}, {"measurement": "IC50", "setting": "[1]", "value": 27.8, "unit": "nM"}, {"measurement": "IC50", "setting": "[2]", "value": 0.93, "unit": "nM"}, {"measurement": "Ratio IC50", "setting": "[3]", "value": 8.2}, {"measurement": "Ratio IC50", "setting": "[4]", "value": 2.9}]}, {"smiles": "NCCCNCCCCNCCCNC(=O)[C@H](CC1CCCCC1)NC(=O)C1CC1", "values": [{"measurement": "Ratio IC50", "setting": "Homo sapiens", "value": 42.6}, {"measurement": "IC50", "setting": "[1]", "value": 112, "unit": "nM"}, {"measurement": "IC50", "setting": "[2]", "value": 2.63, "unit": "nM"}, {"measurement": "Ratio IC50", "setting": "[3]", "value": 2.9}, {"measurement": "Ratio IC50", "setting": "[4]", "value": 0.7}]}, {"smiles": "CCCC(=O)N[C@@H](Cc1ccc(O)cc1)C(=O)NCCCNC[C@H]1C[C@H]1CNCCCN", "values": [{"measurement": "Ratio IC50", "setting": "Homo sapiens", "value": 32.9}, {"measurement": "IC50", "setting": "[1]", "value": 47.4, "unit": "nM"}, {"measurement": "IC50", "setting": "[2]", "value": 1.44, "unit": "nM"}, {"measurement": "Ratio IC50", "setting": "[3]", "value": 5.3}, {"measurement": "Ratio IC50", "setting": "[4]", "value": 1.7}]}, {"smiles": "NCCCNCCCCNCCCNC(=O)[C@H](CC1CCCCC1)NC(=O)c1ccccc1", "values": [{"measurement": "Ratio IC50", "setting": "Homo sapiens", "value": 57.8}, {"measurement": "IC50", "setting": "[1]", "value": 21.4, "unit": "nM"}, {"measurement": "IC50", "setting": "[2]", "value": 0.37, "unit": "nM"}, {"measurement": "Ratio IC50", "setting": "[3]", "value": 20.7}, {"measurement": "Ratio IC50", "setting": "[4]", "value": 3.7}]}, {"smiles": "NCCCNCCCCNCCCNC(=O)[C@H](CC1CCCCC1)NC(=O)C1CCCCCC1", "values": [{"measurement": "Ratio IC50", "setting": "Homo sapiens", "value": 51.3}, {"measurement": "IC50", "setting": "[1]", "value": 28.2, "unit": "nM"}, {"measurement": "IC50", "setting": "[2]", "value": 0.55, "unit": "nM"}, {"measurement": "Ratio IC50", "setting": "[3]", "value": 13.9}, {"measurement": "Ratio IC50", "setting": "[4]", "value": 2.8}]}, {"smiles": "NCCCNCCCCNCCCNC(=O)[C@H](CC1CCCCC1)NC(=O)Cc1cccc2ccccc12", "values": [{"measurement": "Ratio IC50", "setting": "Homo sapiens", "value": 91.3}, {"measurement": "IC50", "setting": "[1]", "value": 14.6, "unit": "nM"}, {"measurement": "IC50", "setting": "[2]", "value": 0.16, "unit": "nM"}, {"measurement": "Ratio IC50", "setting": "[3]", "value": 47.8}, {"measurement": "Ratio IC50", "setting": "[4]", "value": 5.5}]}, {"smiles": "NCCCNCCCCNCCCNC(=O)[C@H](CC1CCCCC1)NC(=O)/C=C/c1ccccc1", "values": [{"measurement": "Ratio IC50", "setting": "Homo sapiens", "value": 34.6}, {"measurement": "IC50", "setting": "[1]", "value": 12.1, "unit": "nM"}, {"measurement": "IC50", "setting": "[2]", "value": 0.35, "unit": "nM"}, {"measurement": "Ratio IC50", "setting": "[3]", "value": 21.9}, {"measurement": "Ratio IC50", "setting": "[4]", "value": 6.6}]}, {"smiles": "CCCC(=O)N[C@@H](Cc1ccc(O)cc1)C(=O)NCCCNC[C@@H]1C[C@H]1CNCCCN", "values": [{"measurement": "Ratio IC50", "setting": "Homo sapiens", "value": 48.2}, {"measurement": "IC50", "setting": "[1]", "value": 44.3, "unit": "nM"}, {"measurement": "IC50", "setting": "[2]", "value": 0.92, "unit": "nM"}, {"measurement": "Ratio IC50", "setting": "[3]", "value": 8.3}, {"measurement": "Ratio IC50", "setting": "[4]", "value": 1.8}]}, {"smiles": "NCCCNCCCCNCCCNC(=O)[C@H](CC1CCCCC1)NC(=O)C1CCCC1", "values": [{"measurement": "Ratio IC50", "setting": "Homo sapiens", "value": 8.4}, {"measurement": "IC50", "setting": "[1]", "value": 5.43, "unit": "nM"}, {"measurement": "IC50", "setting": "[2]", "value": 0.65, "unit": "nM"}, {"measurement": "Ratio IC50", "setting": "[3]", "value": 11.8}, {"measurement": "Ratio IC50", "setting": "[4]", "value": 14.8}]}, {"smiles": "NCCCNCCCCNCCCNC(=O)[C@H](Cc1ccc(O)cc1)NC(=O)C1CCCC1", "values": [{"measurement": "Ratio IC50", "setting": "Homo sapiens", "value": 39.5}, {"measurement": "IC50", "setting": "[1]", "value": 22.5, "unit": "nM"}, {"measurement": "IC50", "setting": "[2]", "value": 0.57, "unit": "nM"}, {"measurement": "Ratio IC50", "setting": "[3]", "value": 13.4}, {"measurement": "Ratio IC50", "setting": "[4]", "value": 3.6}]}, {"smiles": "CCCC(=O)N[C@@H](Cc1ccc(O)cc1)C(=O)NCCCNCCCCNCCCN", "note": "[PHILANTHOTOXIN 343]", "values": [{"measurement": "Ratio IC50", "setting": "Homo sapiens", "value": 10.5}, {"measurement": "IC50", "setting": "[1]", "value": 80.2, "unit": "nM"}, {"measurement": "IC50", "setting": "[2]", "value": 7.65, "unit": "nM"}]}, {"smiles": "NCCCNCCCCNCCCNC(=O)[C@H](CC1CCCCC1)NC(=O)C1CCCCC1", "values": [{"measurement": "Ratio IC50", "setting": "Homo sapiens", "value": 14.3}, {"measurement": "IC50", "setting": "[1]", "value": 31.4, "unit": "nM"}, {"measurement": "IC50", "setting": "[2]", "value": 2.19, "unit": "nM"}, {"measurement": "Ratio IC50", "setting": "[3]", "value": 3.5}, {"measurement": "Ratio IC50", "setting": "[4]", "value": 2.6}]}, {"smiles": "CCCC(=O)N[C@@H](CCc1ccccc1)C(=O)NCCCNCCCCNCCCN", "values": [{"measurement": "Ratio IC50", "setting": "Homo sapiens", "value": 12}, {"measurement": "IC50", "setting": "[1]", "value": 20.8, "unit": "nM"}, {"measurement": "IC50", "setting": "[2]", "value": 1.74, "unit": "nM"}, {"measurement": "Ratio IC50", "setting": "[3]", "value": 4.4}, {"measurement": "Ratio IC50", "setting": "[4]", "value": 3.9}]}, {"smiles": "NCCCNCCCCNCCCNC(=O)[C@H](CC1CCCCC1)NC(=O)C1CCC1", "values": [{"measurement": "Ratio IC50", "setting": "Homo sapiens", "value": 19.4}, {"measurement": "IC50", "setting": "[1]", "value": 20.8, "unit": "nM"}, {"measurement": "IC50", "setting": "[2]", "value": 1.07, "unit": "nM"}, {"measurement": "Ratio IC50", "setting": "[3]", "value": 7.1}, {"measurement": "Ratio IC50", "setting": "[4]", "value": 3.9}]}, {"smiles": "NCCCNCCCCNCCCNC(=O)[C@H](CC1CCCCC1)NC(=O)CC1CC2CCC1C2", "note": "(stereo partly drawn)", "values": [{"measurement": "Ratio IC50", "setting": "Homo sapiens", "value": 26.9}, {"measurement": "IC50", "setting": "[1]", "value": 25.6, "unit": "nM"}, {"measurement": "IC50", "setting": "[2]", "value": 0.95, "unit": "nM"}, {"measurement": "Ratio IC50", "setting": "[3]", "value": 8.1}, {"measurement": "Ratio IC50", "setting": "[4]", "value": 3.1}]}]}
